Test results published in patent publication US4732980A, “Intermediates for 3-amino-1,2,5-thiadiazole-1-oxides” (Smith Kline & French Laboratories Limited, priority 1985, dated 1988).

How the values were obtained:
histamine H2-receptors [1] = biological target: T1, histamine H2-receptors (Rattus norvegicus, UniProt P25102); assay: standard lumen-perfused rat test (inhibition of histamine-stimulated secretion of gastric acid from the lumen-perfused stomachs of rats anaesthetised with urethane); type: in vivo
T1 construct: secretion of gastric acid from the lumen-perfused stomachs of rats anaesthetised with urethane; from tissue; host or cells: stomach of urethane-anaesthetised rats (in vivo, lumen-perfused)
From the text: These are actions of histamine which, according to Ash and Schild, Brit. J. Pharmac. Chemother. 27 247 (1966), are not mediated by histamine H1 -receptors.
(§1) The measurement of inhibition of histamine-stimulated secretion of gastric acid from the lumen-perfused stomachs of rats anaesthetised with urethane, and the measurement of inhibition of histamine-induced tachycardia in the isolated guinea pig right atrium, are detailed in U.S. Pat. No. 4,385,058.
(§2) To illustrate the level of activity of these compounds the following data were obtained in the standard guinea pig atrium test and the standard lumen-perfused rat test (for example see EP No. -A-49173).

histamine H2-receptors [2] = biological target: T2, histamine H2-receptors (Cavia porcellus, UniProt P47747); assay: standard guinea pig atrium test (inhibition of histamine-induced tachycardia in the isolated guinea pig right atrium); type: cell-based; details: for Kb: isolated guinea pig right atrium, read-out: pA2 (guinea-pig atrium) (converted); for slope of response (figure in brackets with pA2, guinea-pig atrium): slope belonging to pA2, guinea-pig atrium
T2 construct: from tissue; host or cells: isolated guinea pig right atrium
From the text: as §1, §2

T2 sequence (P47747 whole entry): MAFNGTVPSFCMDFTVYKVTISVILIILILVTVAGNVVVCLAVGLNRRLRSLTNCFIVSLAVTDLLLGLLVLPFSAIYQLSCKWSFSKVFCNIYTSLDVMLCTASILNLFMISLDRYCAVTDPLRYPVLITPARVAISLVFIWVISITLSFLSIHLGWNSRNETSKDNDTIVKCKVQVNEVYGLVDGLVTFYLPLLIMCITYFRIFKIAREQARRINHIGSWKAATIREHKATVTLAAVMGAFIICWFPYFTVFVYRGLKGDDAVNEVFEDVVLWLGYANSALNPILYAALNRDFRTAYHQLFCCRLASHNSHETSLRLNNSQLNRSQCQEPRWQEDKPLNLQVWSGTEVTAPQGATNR
T1 sequence (P25102 whole entry, the tested form may be a part): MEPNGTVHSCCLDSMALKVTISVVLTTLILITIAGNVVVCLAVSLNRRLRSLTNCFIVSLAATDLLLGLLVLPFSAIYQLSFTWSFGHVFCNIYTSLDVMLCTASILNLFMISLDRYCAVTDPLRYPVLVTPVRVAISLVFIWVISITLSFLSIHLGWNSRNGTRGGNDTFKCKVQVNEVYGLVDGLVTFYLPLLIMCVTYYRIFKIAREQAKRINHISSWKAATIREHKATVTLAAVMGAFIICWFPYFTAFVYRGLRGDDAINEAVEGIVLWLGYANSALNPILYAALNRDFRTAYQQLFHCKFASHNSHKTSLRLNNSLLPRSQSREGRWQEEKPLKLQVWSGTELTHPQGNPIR

ED50 (histamine H2-receptors [1]) [mg/kg] | Kb (histamine H2-receptors [2]) [nM] | slope of response (figure in brackets with pA2, guinea-pig atrium) (histamine H2-receptors [2]) | Compound
0.027 | 100 | 0.88 | CN(C)CC#CCCCNC1=NS(=O)(=O)N=C1N [Example 4, 3-Amino-4-[6-dimethylaminohex-4-ynylamino]-1,2,5-thiadiazole-1,1-dioxide]
0.16 | 646 | 0.61 | CN(C)CC#CCCCCNc1n[s+]([O-])nc1N (stereo not drawn) [Example 2, 3-Amino-4-[7-dimethylaminohept-5-ynylamino]-1,2,5--thiadiazole-1-oxide]
1.1 | 3020 | 0.95 | Nc1n[s+]([O-])nc1NCCCCC#CCN1CCCCC1 (stereo not drawn) [Example 1, 3-Amino-4-[7-piperidinohept-5-ynylamino]-1,2,5-thiadiazole-1-oxide]
0.1 | 151 | 0.50 | CN(C)CC#CCCCCNC1=NS(=O)(=O)N=C1N [Example 3, 3-Amino-4-[7-dimethylaminohept-5-ynylamino]-1,2,5-thiadiazole-1,1-dioxide]
